Experimental data taken from patent US20040191913A1, “Method of evaluation of antioxidation ability by measuring redox balance in vivo” (priority 2002, published 2004).

Key:
[1] = Radical removability by magnetic spin resonator (attenuation of the DMPO-OOL signal); type: biochemical; conditions: 10 mM DMPO; for IC50 / 50% Inhibition Concentration: DMPO-OOL signal intensity, 1 minute after start of reaction; for IC50: read-out: 50% Inhibition Concentration
Procedure: The antioxidation index is obtained by indexing the radical removability, R that is determined by the use of a magnetic spin resonator in the manner mentioned below, within a range of from 1 to 10points. The determination with a magnetic spin resonator is effected as follows: The DMPO-OOL radical resulting from trapping of a butylhydroperoxide radical by a spin trapping agent, 5,5-dimethyl-1-pyrroline-N-oxide (DMPO) is quantitatively determined by the use of a magnetic spin resonator, and a serum sample is added to the system to determine the degree of signal intensity attenuation in the system. […] Radical Removability R=[DMPO]/50% Inhibition Concentration.
Preferably, the determination with a magnetic spin resonator is effected as follows: 100 mM butylhydroperoxide, 50 μg/ml methemoglobin, 10 mM DMPO and 0.1 mM diethylenetriamine-pentaacetic acid are reacted in 10 mM phosphate buffer. One minute after the start of the reaction, the DMPO-OOL signal intensity is measured by the use of a magnetic spin resonator.

[2] = system: Leptin receptor-defective, natural diabetic db/db mice; test: Animal test: 0.02% astaxanthin feed in diabetic db/db mice; type: in vivo
Description: The quantitative determination of 8-OHdG is effected through enzyme immunoassay using a monoclonal antibody.
Leptin receptor-defective, natural diabetic db/db mice (animal model similar to human type-II diabetes) were used in the test. […] A control group of leptin receptor-defective, natural diabetic db/db mice was not given astaxanthin.

IC50 [1] [µM] | Molecule | R (Radical Removability = [DMPO]/50% Inhibition Concentration) [1] | further results
44 | O=C1O[C@H]([C@@H](O)CO)C(O)=C1O [Ascorbic acid] | 227 | 
410 | N[C@@H](CCC(=O)N[C@@H](CS)C(=O)NCC(=O)O)C(=O)O [Glutathione] | 24 | 
360 | O=c1[nH]c(=O)c2[nH]c(=O)[nH]c2[nH]1 [Uric acid] | 28 | 
700 | Cc1c(C)c2c(c(C)c1O)CC[C@@](C)(CCC[C@H](C)CCC[C@H](C)CCCC(C)C)O2 [α-Tocopherol] | 14 | 

Further lines, the molecule ahead of its results:

Molecule | IC50 [1] [µM] | R (Radical Removability = [DMPO]/50% Inhibition Concentration) [1] | further results
CC1=C(/C=C/C(C)=C/C=C/C(C)=C/C=C/C=C(C)/C=C/C=C(C)/C=C/C2=C(C)C(=O)[C@@H](O)CC2(C)C)C(C)(C)C[C@H](O)C1=O [Astaxanthin, astaxanthin] |  |  | 8-OHdG discharge in urine (in words) ([2]; 3 months): significantly inhibits; development of diabetic nephropathy (in words) ([2]; 3 months): significantly retards; 8-OHdG in Urine ([2]; fed for 3 months, enzyme immunoassay, p < 0.05 vs control group): 135.6 ± 41.1 ng/day; Albumin in Urine ([2]; fed for 3 months, p < 0.05 vs control group): 68.6 ± 13.4 µg/day
CC1=C(/C=C/C(C)=C/C=C/C(C)=C/C=C/C=C(C)/C=C/C=C(C)/C=C/C2=C(C)CCCC2(C)C)C(C)(C)CCC1 [β-Carotene] |  |  | 50% Inhibition Concentration [1]: >0.2 mg/mL
Catalase |  |  | 50% Inhibition Concentration [1]: >4,000 U/ml
